Test results reported in patent US8680075B2, “Methods and compositions for inhibiting cellular proliferation and surgical adhesion” (Novelmed Therapeutics, Inc., priority 2009, dated 2014).
Entries after “also recorded” stand apart in the source; their conditions may differ.

Assays:
[1] = test system: platelets; experiment: Platelet activation after tubing loop (flow cytometry CD61/CD62P); assay type: cell-based, human; conditions: blood after tubing loop
Experimental: (§1) Chemotactic peptides are produced at the injury site, which can attract inflammatory cells at the injury site causing inflammation. NM2040 was tested to determine if this compound would inhibit the production of the C3a and C5a. The compound was incubated with blood at 37 degree in a rotating tubing loops. Whole blood from a healthy donor was collected into a polypropylene tube containing 5 units of heparin per ml of whole blood. The whole blood was diluted 1:1 with plasmalyte and aliquoted in 2 ml aliquots with and without drug treatments. PVC tubings of 4 mm diameter were filled with 2.0 ml of the heparinized human blood and closed into a loop with a short piece of silicon tubing. […] The plasma samples were diluted to 5% with sample diluent buffer and the amounts of C3a and C5a were determined using ELISA assay kits following the manufacturer's instructions (Quidel Corporation, San Diego Calif.). […] In the same experiment, NM3015 was also evaluated. […]
(§2) Aliquots of blood following the tubing loop were stained with fluorescent labeled antibodies for flow cytometry studies. […] The samples were subjected to flow cytometry using CellQuest, BD-LSR I and the data were analyzed using WinList 5.0. Ln Median was used for calculating the shift in CD11b staining for neutrophils and monocytes. % gated dual labeled cells were quantified for platelet populations.

[2] = test system: monocytes; experiment: Monocyte activation after tubing loop (flow cytometry CD14/CD11b); assay type: cell-based, human; conditions: blood after tubing loop
Experimental: as §1, §2

[3] = test system: epidural fibrosis after lumbar laminectomy; experiment: Rat laminectomy epidural fibrosis model, Example 6; assay type: in vivo; conditions: two weeks after laminectomy
Excerpt: The scar tissue attachment to the spinal cord is believed to be the cause of long-term, recurrent pain following laminectomy procedures. The epidural fibrosis refers to the scar tissue that forms following a laminectomy procedure. Laminectomy refers to back surgery of the lamina. Scar tissue forms within the laminectomy site and binds the undersurface of the erector spinae muscles to the posterior and lateral surfaces of the dura mater and to the nerve roots exiting through the dura matter. Epidural fibrosis was investigated after lumbar laminectomy in rats. In this model, a laminectomy is performed at the lumbar 3 (L3) and 5 (L5) vertebrae and then the test agent is applied to the laminectomy site. Subsequently, the laminectomy sites are examined for fibrosis by gross dissection.
Laminectomies were performed at lumbar vertebrae L3 and L5 to provide auto-controls within each animal. Gelfoam-NM2040 mix was prepared and used on Laminectomy sites in rats. Lewis inbred rats were anesthetized isofluorane. The dorsal skin was incised and the paraspinal muscles were separated from the spinous processes of lumbar vertebrae L2 through L6 to expose the L3 and L5. The spinous processes of L3 and L5 were removed and the vertebral lamina was also removed creating a rectangular laminectomy defect. The test material was placed onto the laminectomy site. […] The site and the tissue were scored 0 to 2. […]

[4] = test system: platelets; experiment: Platelet damage / platelet number after tubing loop (flow cytometry CD61/CD62P); assay type: cell-based, human; conditions: blood after tubing loop, FITC CD61 positive platelets
Experimental: as §1, with “tubing. Sample and control tubing loops were rotated vertically in a water bath for 2 hours at 37° C. After incubation, blood samples were transferred into 5 ml siliconized eppendorf tubes.” for “tubing.”
Aliquots of blood following the tubing loop were stained with fluorescent labeled antibodies for flow cytometry studies. […] The samples were subjected to flow cytometry using CellQuest, BD-LSR I and the data were analyzed using WinList 5.0. […]

[5] = test system: epidural fibrosis after laminectomy; experiment: Rat laminectomy epidural fibrosis model, Example 8; assay type: in vivo
Experimental: Epidural fibrosis was investigated after laminectomies in adult Lewis rats. Laminectomies were performed at the lumbar 3 (L3) and 5 (L5) vertebrae. The test agent gel was applied to one site and saline (control) was applied to the other. Two weeks later, the laminectomy sites were examined for fibrosis by gross dissection as previously described. Briefly, rats were anesthetized. The dorsal skin was incised and the paraspinal muscles were separated from the spinous processes of lumbar vertebrae L2 through L6 to expose L3 and L5. The spinous processes of L3 and L5 and the vertebral lamina were removed, creating a rectangular laminectomy defect approximately 5×2 mm (FIG. 11A). The test material NM2040, or vehicle was placed onto the laminectomy site according to randomized, coded protocol (FIG. 11B). The formulation of NM2040 consisted of 10% gel foam powder, 20 mg/ml final concentration in sterile saline. The mixtures were placed in a syringe, autoclaved and allowed to cool to room temperature prior to placement into the laminectomy site. The fascia overlying the paraspinal muscles was sutured 5-0 polydoxanone PDS resorbable suture (Ethicon) and the skin incision was closed with 7.5 mm Michel wound clips. After two weeks, animals were anesthetized and subjected to gross evaluation. For gross evaluation, the wound site was reopened by incising the skin and separating the paraspinal muscles. Epidural scar formation was designated as the connective tissue between the test material and the dura mater. The thickness and toughness of the deep scar was evaluated by blunt dissection and scored 0 to 2.0 being the “no adhesions” with the dura mater clearly visible, 1 being a thin, lose connective tissue covering the dura that was easily removed, and 2 being a thick, dense tenacious adhesion that was difficult to impossible to remove without tearing the dura. Scoring was completed without knowledge of treatment at any of the laminectomy sites.

[6] = test system: C3a; experiment: C3a formation in whole blood tubing loop (ELISA); assay type: cell-based; conditions: heparinized human whole blood 1:1 plasmalyte, tubing loop 2 hours 37° C.
Experimental: (§3) Chemotactic peptides are produced at the injury site, which can attract inflammatory cells at the injury site causing inflammation. NM2040 was tested to determine if this compound would inhibit the production of the C3a and C5a. The compound was incubated with blood at 37 degree in a rotating tubing loops. Whole blood from a healthy donor was collected into a polypropylene tube containing 5 units of heparin per ml of whole blood. The whole blood was diluted 1:1 with plasmalyte and aliquoted in 2 ml aliquots with and without drug treatments. PVC tubings of 4 mm diameter were filled with 2.0 ml of the heparinized human blood and closed into a loop with a short piece of silicon tubing. Sample and control tubing loops were rotated vertically in a water bath for 2 hours at 37° C. After incubation, blood samples were transferred into 5 ml siliconized eppendorf tubes. The samples were separated into two aliquots; one aliquot was subjected to flow cytometry studies and the other aliquot was centrifuged to separate the plasma for the measurement of C3a and C5a. The plasma samples were diluted to 5% with sample diluent buffer and the amounts of C3a and C5a were determined using ELISA assay kits following the manufacturer's instructions (Quidel Corporation, San Diego Calif.). […] In the same experiment, NM3015 was also evaluated. […]

[7] = test system: alternative pathway; experiment: Alternative pathway (AP) activation; assay type: cell-based, human
Experimental: as §3

[8] = test system: C6 cells; experiment: Glioma (C6 cell) proliferation in cloning ring culture; assay type: cell-based; conditions: five days; for concentration of maximal effect on glioma proliferation: C6 cells
Experimental: In a six well plate, a cloning ring of 6 mm diameter was placed and 60 μl aliquot of cellular suspension (stock containing 320,000 cells/ml of C6 cells) was prepared and placed in the center of each well of a six well plate in the cloning ring. After 4 h, the media was removed and the cells were incubated with Opti-MEM 1× media with and without the compound. These cultures were incubated at 37° C. and with 10% CO2 for five days, following which the pictures were taken as shown in FIG. 2. The compound effect appears to be dose dependent with maximal effect shown at […]. The first panel is for controls (untreated), the second panel at 3 mg/ml, the third panel at 1.5 mg/ml, the fourth panel at 0.75 mg/ml, and the fifth panel at 0.36 mg/ml.

[9] = test system: 3T3 cells; experiment: 3T3 cell proliferation assay (Cy Quant fluorescence); assay type: cell-based; conditions: 1 to 600 μg/ml, 5 days, DMEM 10% FCS
Experimental: Approximately 50,000 cells were plated in a 96 well ELISA plate. The cells were allowed to grow in DMEM with 10% FCS media for 5 days, following which the cells were treated with Cy Quant assay and the inhibition of cellular proliferation was measured using the decreased fluorescence intensity. To evaluate the effect of various concentrations of NM2040 in the cellular proliferation assay, cultures were treated with concentrations ranging from 1 to 600 μg/ml. The total fluorescence intensity was plotted against the concentrations.

[10] = test system: neutrophils; experiment: Neutrophil activation after tubing loop (flow cytometry CD15/CD11b); assay type: cell-based, human; conditions: blood after tubing loop
Experimental: as §1, §2

[11] = test system: C5a; experiment: C5a formation in whole blood tubing loop (ELISA); assay type: cell-based; conditions: heparinized human whole blood 1:1 plasmalyte, tubing loop 2 hours 37° C.
Experimental: as §3

conjugate of dextran sulfate and 2-(butane-1-sulfonylamino)-3-[4-(4-piperidin-4-yl-butoxy)-phenyl]-propionic acid [NM2040]
platelet activation (% gated CD61/CD62P dual labeled) [1]: significant inhibition of cellular activation | monocyte activation (CD11b shift) [2]: significant inhibition of cellular activation | adhesion scores compared to saline controls [3]: significantly lower | effect on platelets (platelet damage / number) [4]: does not affect the platelets; also recorded: does not destroy platelets | adhesion scores compared to treatment with vehicle ([5]; two weeks after laminectomy): significantly reduces adhesion scores | gross appearance of laminectomy site ([5]; two weeks after laminectomy): thin easily removed connective tissue above the dura to no adhesions | average gross evaluation score of epidural scar (0 to 2) ([5]; two weeks after laminectomy, gel at site, saline sites scored 2): 0.5 | histological sections of the vertebral column at L3 (Masson trichrome) ([5]; two weeks, compared to controls): smooth filling | MRI appearance of laminectomy site ([5]; two weeks, compared to saline controls): the tissue appears to be smooth | C3a production [6]: prevent C3a and C5a production in a dose dependent manner | activation of the alternative pathway [7]: inhibits activation of the alternative pathway | glioma proliferation, effect ([8]; C6 cells, 0.36, 0.75, 1.5 and 3 mg/ml): inhibitory at all doses | concentration of maximal effect on glioma proliferation ([8]; first statement): 3 µg/mL | concentration of maximal effect on glioma proliferation ([8]; second statement): ~1000 µg/mL | 3T3 cell proliferation [9]: Inhibits | neutrophil activation (CD11b shift) [10]: significant inhibition of cellular activation | C5a production [11]: prevent C3a and C5a production in a dose dependent manner
